These results are taken from patent publication US12708676B2, “Phosphate compounds for detecting neurological disorders” (Amydis, Inc., priority 2018, dated 2026).

Data set [1] can be described thus: Solubility of Compound 9 / phosphate prodrugs. It is filed as physicochemical. To be noted: aqueous buffer; phosphate buffer at pH 7.4. The text has this: Due to the poor water solubility and the large particle size of compounds such as Compound 7, prodrug derivatives of these compounds were investigated.
The nature of data set [2]: Rabbit pharmacokinetics of Compound 9, Study 1 (retina, brain, blood). It is filed as in vivo. To be noted: other: injection (site not specified), Study 1, 30 mg Compound 9 injected. As for the experimental part: (§1) Compound 9 was injected into rabbits as a solution in 0.1 M phosphate buffer, pH 7.4 such that rabbits received either 30 mg of Compound 9 (Study 1) or 28 mg of Compound 9 (Study 2). The purpose of these studies was to confirm that Compound 9 could easily be converted into Compound 7 in vivo.
Study 1: Rabbits received a 1.5 mL injection of a 20 mg/mL solution of Compound 9 in 0.1 M phosphate buffer, pH 7.4. Rabbits were sacrificed at the specified time points (N=3 per time point) in the tables below and the average concentration of Compound 9 and Compound 7 was determined in the retina (Table 3), brain (Table 4) and blood (Table 5).

Data set [3] is described as follows: Rabbit pharmacokinetics of Compound 9, Study 2 (retina, brain, blood/plasma). It is filed as in vivo. As for the experimental part: as §1
Study 2: The purpose of this study was to determine if higher concentrations of Compound 9 and/or Compound 7 was present at earlier time points in the tissues specified. Rabbits received a 1.4 mL injection of a 20 mg/mL solution of Compound 9 in 0.1 M phosphate buffer, pH 7.4. Blood was collected from rabbits (N=6) two minutes after receiving Compound 9 to determine the blood concentration at this time point (Table 8). Rabbits were then sacrificed at the specified time points (N=3 per time point) in the tables below and the average concentrations of Compound 9 and Compound 7 were determined in the retina (Table 6), brain (Table 7) and blood (Table 8).

Data set [4] deals with hyperphosphorylated three repeat tau protein. The experiment in a line: Example 3: retinal fluorescent imaging of model mice after intravenous Compound 9. Set-up: species or system mouse. The following applies: Compound 9 intravenously, retinas imaged ex vivo, example in present tense. As for the experimental part:
Model mice having a detectable target protein, for example, an amyloid beta protein, or a phosphorylated tau protein, or an accumulated mass thereof, are administered Compound 9 intravenously. Retinas of the mice are removed and are mounted on slides. The retinas are washed with PBS 2 times for 5 minutes. A solution of 98% formic acid is added—5 minutes for antigen retrieval. The sampled are washed with distilled water—2 times for 5 minutes. The samples are equilibrated in 1×PBS for 15 minutes, then blocked with 10% goat/donkey serum in 1× PB ST (depending on antibodies) for 1 hour. Samples are covered in foil, and washed with 1× PBS 3 times for 5 minutes each. Samples are stained with DAPI (300 nM or 100 ng/mL) in dark for 10 minutes, then tissues are washed 3×10 minutes with PBS. Antifade DAKO mounting medium is added, and coverslip and kept under foil until imaging.
Fluorescent imaging study of the samples is conducted on a Leica DMI 4000B microscope (Leica, Germany) equipped with a TCS SPE camera and Leica 10, 20 and 40× objectives. The following lasers are used to visualize fluorescent probes pertaining to DAPI (blue, nuclear stain), Compound 7 (green) and hyperphosphorylated tau (red): 408, 488 and 568 nm. Z-stacked images are taken at 40× at 0.5 μm increments to visualize the entire thickness of the tissue.

In the next data set the test system is Aβ. The experiment in a line: Example 4: detection of Aβ in the retina of a TBI (blast) mouse model. To be noted: blast model mice 24 hours after injury, Compound 9 intravenously; example in present tense. The data set is classed as in vivo. As for the experimental part: This example is conducted to determine whether Compound 9 detects Aβ in the retina of a TBI mouse model.
Blast model mice 24 hours after injury and a non-injured mouse are administered Compound 9 intravenously. Mice retinas are scanned by scanning laser ophthalmoscopy (SLO).
Alternatively, or in addition to retinal scanning, retinal tissues are removed and stained with an anti-Aβ antibody (6E10).

Converted amounts (≈) assume the structure as drawn. Where two headings read alike, the source gives them in different places. Where only a bound is given, the exact number is not on record here.

For orientation: solubility means the dissolved amount per volume that the medium holds. Usually Kp stands for the ratio of the level in a tissue or fluid to that in plasma or blood. For `N#C/C(=C\c1ccc2cc(N3CCCCC3)ccc2c1)C(=O)NCCOCCOCCOP(=O)(O)O` [Compound 9], the solubility in data set [1] was 20 to 30 mg/mL (≈ 38.6 to 58 mM). Besides, the concentration at 15 min in data set [2] (blood, read-out: Avg Conc., blood) is 5440 ± 767 ng/mL; in data set [2] (brain, read-out: Avg Conc., brain), 0.439 ng/g. Also, the concentration at 30 min in data set [2] (blood, 30 min, read-out: Avg Conc., blood) stood at 374 ± 301 ng/mL. The concentration at 60 min in data set [2] (blood, 60 min, read-out: Avg Conc., blood) came to 24.9 ± 31.8 ng/mL. The concentration at 5 min stood at 7.2 ± 2.62 ng/g in data set [3] (brain, other: injection (site or type of injection not stated), rabbit, Study 2, 28 mg Compound 9 injected, 5 min, read-out: Avg Conc., brain) and 40000 ± 11800 ng/mL in data set [3] (plasma, other: injection (site not specified), rabbit, Study 2, 28 mg Compound 9 injected, 5 min, read-out: Avg Conc., plasma). Besides, the concentration at 10 min in data set [3] (brain, other: injection (site or type of injection not stated), rabbit, Study 2, 28 mg Compound 9 injected, read-out: Avg Conc., brain) came to 2.23 ± 0.426 ng/g; in data set [3] (plasma, other: injection (site not specified), rabbit, Study 2, 28 mg Compound 9 injected, read-out: Avg Conc., plasma), 8860 ± 1310 ng/mL. The Kp in data set [3] (brain, rabbit, after injection of Compound 9) was < 0.001. In addition, the “Conversion of Compound 9 to Compound 7 in vivo” value in data set [3] (healthy rabbit model) was “rapidly converted to Compound 7”. For the same compound, in data set [3] (plasma, other: injection (site not specified), rabbit, Study 2, 28 mg Compound 9 injected, 2 min, read-out: Avg Conc., plasma), the concentration at 2 min came out at 67600 ± 18800 ng/mL. For the same compound, the “Avg Conc., retina” value in data set [3] (rabbit, Study 2, 28 mg Compound 9 injected, 5 min) is “remained undetectable”. In data set [3] (rabbits, during the time course of the study), the Adverse reactions result was “no adverse reactions were noted”. Besides, the “Detection of hyperphosphorylated three repeat tau protein in the retina” value in data set [4] is on record as “detected in the retina, producing a detectable fluorescent signal”. Besides, the “Scanning laser ophthalmoscopy image of retina” value with Aβ is given as “showing the presence of Aβ plaques”.
